According to ChEMBL document CHEMBL5325422, “Design and synthesis of fascaplysin derivatives as inhibitors of FtsZ with potent antibacterial activity and mechanistic study” (Eur J Med Chem, 2023):
Values after ≈ are worked out from the molar mass of the structure shown. Active and inactive are the calls of the source. The rule behind the calls is not given here.

Columns and labels:
[1] = test system: Staphylococcus aureus; assay: Antibacterial activity against methicillin-resistant Staphylococcus aureus ATCC43300 assessed as bacterial growth inhibition incubated for 18 to 24 hrs by microbroth dilution method; type: functional; conditions: time 18-24 hrs
[2] = test system: Streptococcus pneumoniae; assay: Antibacterial activity against Streptococcus pneumoniae ATCC49619 assessed as bacterial growth inhibition incubated for 18 to 24 hrs by microbroth dilution method; type: functional; conditions: time 18-24 hrs
[3] = test system: Escherichia coli; assay: Antibacterial activity against penicillin-susceptible Escherichia coli ATCC25922 assessed as bacterial growth inhibition incubated for 18 to 24 hrs by microbroth dilution method; type: functional; conditions: time 18-24 hrs
[4] = test system: Bacillus subtilis; assay: Antibacterial activity against Bacillus subtilis BNCC336690 assessed as bacterial growth inhibition incubated for 18 to 24 hrs by microbroth dilution method; type: functional; conditions: time 18-24 hrs
[5] = test system: Staphylococcus aureus; assay: Antibacterial activity against methicillin-resistant Staphylococcus aureus ATCC43300 assessed as bacterial count reduction at 2 times MIC measured after 10 hrs by time-killing assay; type: functional, organism-based
[6] = Cytotoxicity against mouse RAW264.7 cells assessed as cell survival at 12.5 ug/ml incubated for 24 hrs by CCK8 assay relative to control; type: toxicity, cell-based; conditions: at 12.5 µg/mL, read-out: Activity
[7] = molecular target: T1, Cell division protein FtsZ (Escherichia coli K-12) (UniProt P0A9A6); assay: Inhibition of recombinant Escherichia coli FtsZ expressed in Escherichia coli BL21 assessed as reduction in GTPase activity incubated for 30 mins by malachite green phosphate staining based assay; conditions: dose 0.02-0.64 µg/ml
T1 sequence (whole entry): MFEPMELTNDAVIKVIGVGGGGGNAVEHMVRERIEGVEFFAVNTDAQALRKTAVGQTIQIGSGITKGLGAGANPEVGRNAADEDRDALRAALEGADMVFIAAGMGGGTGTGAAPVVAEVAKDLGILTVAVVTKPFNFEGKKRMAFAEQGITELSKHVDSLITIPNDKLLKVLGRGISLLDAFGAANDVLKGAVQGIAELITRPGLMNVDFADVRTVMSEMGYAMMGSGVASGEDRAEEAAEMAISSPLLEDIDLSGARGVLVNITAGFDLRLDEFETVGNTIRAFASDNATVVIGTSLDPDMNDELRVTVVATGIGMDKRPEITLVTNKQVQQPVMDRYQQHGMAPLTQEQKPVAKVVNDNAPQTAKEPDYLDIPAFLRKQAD

[8] = test system: Bacillus subtilis; assay: Antibacterial activity against Bacillus subtilis BNCC336690 assessed as increase in cell length at 0.5 times MIC incubated for 4 hrs by microscopic analysis; type: functional, organism-based
[9] = Cytotoxicity against mouse RAW264.7 cells assessed as cell survival at 50 ug/ml incubated for 24 hrs by CCK8 assay relative to control; type: toxicity, cell-based; conditions: at 50 µg/mL, read-out: Activity
[10] = molecular target: T1, Cell division protein FtsZ (Escherichia coli K-12); assay: Inhibition of recombinant Escherichia coli FtsZ expressed in Escherichia coli BL21 assessed as induction of FtsZ polymerization incubated for 10 mins by light scattering assay; conditions: dose 1-4 µg/ml
[11] = Hemolytic activity in human erythrocytes assessed as release of hemoglobin level at 12.5 ug/ml incubated for 1 hr by absorbance based assay relative to control; type: toxicity, cell-based, Erythrocyte; conditions: at 12.5 µg/mL, read-out: Activity
[12] = molecular target: T1, Cell division protein FtsZ (Escherichia coli K-12); assay: Inhibition of recombinant Escherichia coli FtsZ expressed in Escherichia coli BL21 assessed as bundling of FtsZ filaments at 4 ug/ml incubated for 10 mins by TEM analysis; conditions: dose 4.0 µg/ml
[13] = molecular target: T1, Cell division protein FtsZ (Escherichia coli K-12); assay: Inhibition of recombinant Escherichia coli FtsZ expressed in Escherichia coli BL21 assessed as reduction in GTPase activity at 0.32 ug/ml incubated for 30 mins by malachite green phosphate staining based assay relative to control; conditions: dose 0.32 µg/ml
[14] = test system: Staphylococcus aureus; assay: Antibacterial activity against drug-resistant Staphylococcus aureus ATCC43300 assessed as inhibition of resistance development at 0.5 times MIC after 25 passages incubated for 18 to 24 hrs by microbroth dilution method; type: functional, organism-based; conditions: time 18-24 hrs
[15] = Cytotoxicity against mouse RAW264.7 cells assessed as cell survival at 25 ug/ml incubated for 24 hrs by CCK8 assay relative to control; type: toxicity, cell-based; conditions: at 25 µg/mL, read-out: Activity
[16] = test system: Staphylococcus aureus; assay: Antibacterial activity against methicillin-resistant Staphylococcus aureus ATCC43300 assessed as log10 CFU reduction at 1 to 4 times MIC measured after 4 hrs by time-killing assay; type: functional
[17] = test system: Staphylococcus aureus; assay: Antibacterial activity against methicillin-resistant Staphylococcus aureus ATCC43300 assessed as wrinkling cell surface at 4 times MIC incubated for 2 hrs by SEM analysis; type: functional, organism-based
[18] = test system: Staphylococcus aureus; assay: Antibacterial activity against methicillin-resistant Staphylococcus aureus ATCC43300 assessed as filamentation on cell surface at 4 times MIC incubated for 2 hrs by SEM analysis; type: functional, organism-based
[19] = test system: Staphylococcus aureus; assay: Inhibition of biofilm formation in methicillin-resistant Staphylococcus aureus ATCC43300 at 0.024 ug/ml incubated for 24 hrs by crystal violet staining based assay relative to control; type: functional
[20] = test system: Staphylococcus aureus; assay: Antibacterial activity against methicillin-resistant Staphylococcus aureus ATCC43300 assessed as log10 CFU reduction at 1 to 4 times MIC measured for 1 hr by time-killing assay; type: functional
[21] = molecular target: T1, Cell division protein FtsZ (Escherichia coli K-12); assay: Inhibition of recombinant Escherichia coli FtsZ expressed in Escherichia coli BL21 assessed as induction of FtsZ polymerization at 4 ug/ml incubated for 10 mins by light scattering assay; conditions: dose 4.0 µg/ml
[22] = test system: Staphylococcus aureus; assay: Inhibition of biofilm formation in methicillin-resistant Staphylococcus aureus ATCC43300 at 0.012 ug/ml incubated for 24 hrs by crystal violet staining based assay relative to control; type: functional
[23] = test system: Staphylococcus aureus; assay: Inhibition of biofilm formation in methicillin-resistant Staphylococcus aureus ATCC43300 at 0.049 ug/ml incubated for 24 hrs by crystal violet staining based assay relative to control; type: functional
[24] = test system: Staphylococcus aureus; assay: Inhibition of biofilm formation in methicillin-resistant Staphylococcus aureus ATCC43300 incubated for 24 hrs by crystal violet staining based assay; type: functional, organism-based; conditions: dose 0.012-12.5 µg/ml

O=C(O)c1cn(C2CC2)c2cc(N3CCNCC3)c(F)cc2c1=O [CIPROFLOXACIN]
MIC [1]: 0.78 µg/mL (≈ 2.35 µM)
MIC [2]: 0.195 µg/mL (≈ 0.589 µM)
MIC [3]: 0.195 µg/mL (≈ 0.589 µM)
MIC [4]: 0.195 µg/mL (≈ 0.589 µM)

CN[C@H](CC(C)C)C(=O)N[C@H]1C(=O)N[C@@H](CC(N)=O)C(=O)N[C@H]2C(=O)N[C@H]3C(=O)N[C@H](C(=O)N[C@H](C(=O)O)c4cc(O)cc(O)c4-c4cc3ccc4O)[C@H](O)c3ccc(c(Cl)c3)Oc3cc2cc(c3O[C@@H]2O[C@H](CO)[C@@H](O)[C@H](O)[C@H]2O[C@H]2C[C@](C)(N)[C@H](O)[C@H](C)O2)Oc2ccc(cc2Cl)[C@H]1O [VANCOMYCIN]
MIC [3]: > 200 µg/mL
Activity [5]: inactive

CC(C)c1cccc(NC(=O)c2ccc3[nH]c4c5[n+](ccc4c3c2)-c2ccccc2C5=O)c1.[Br-]
MIC [1]: 0.098 µg/mL
MIC [2]: 0.049 µg/mL
viability at 24 h, 12.5 ug/ml [6]: 98.8%
inhibition [7]: Dose-Dependent Effect
MIC [3]: > 200 µg/mL
Activity [8]: Active
viability at 24 h, 50 ug/ml [9]: 98.2%
inhibition [10]: Dose-Dependent Effect
hemolysis at 1 h, 12.5 ug/ml [11]: 0%
inhibition [12]: Active
MIC [4]: 0.098 µg/mL
inhibition [13]: 40%
inhibition [14]: inactive
viability at 24 h, 25 ug/ml [15]: 100%
Activity [16]: 2 log10CFU/ml
Activity [17]: Active
Activity [18]: Active

CCCCCCCCNC(=O)c1ccc2[nH]c3c4[n+](ccc3c2c1)-c1ccccc1C4=O.[Br-]
MIC [1]: 0.098 µg/mL
MIC [2]: 0.39 µg/mL
viability at 24 h, 12.5 ug/ml [6]: 103%
inhibition at 0.024 µg/mL [19]: ~42.7%
inhibition [7]: Dose-Dependent Effect
MIC [3]: > 200 µg/mL
Activity [8]: Active
viability at 24 h, 50 ug/ml [9]: 73.3%
Activity [20]: 2 log10CFU/ml
inhibition [21]: Active
inhibition [10]: Dose-Dependent Effect
inhibition at 0.012 µg/mL [22]: ~11.9%
hemolysis at 1 h, 12.5 ug/ml [11]: 0%
inhibition at 0.049 µg/mL [23]: 82.6%
inhibition [12]: Active
MIC [4]: 0.098 µg/mL
inhibition [14]: inactive
viability at 24 h, 25 ug/ml [15]: 84.1%
inhibition [24]: Dose-Dependent Effect
Activity [17]: Active
Activity [18]: Active

Cc1cccc(NC(=O)c2ccc3[nH]c4c5[n+](ccc4c3c2)-c2ccccc2C5=O)c1.[Br-]
MIC [1]: 0.098 µg/mL
MIC [2]: 0.098 µg/mL
viability at 24 h, 12.5 ug/ml [6]: 104%
inhibition [7]: Dose-Dependent Effect
MIC [3]: > 200 µg/mL
Activity [8]: Active
viability at 24 h, 50 ug/ml [9]: 101%
inhibition [21]: Active
inhibition [10]: Dose-Dependent Effect
hemolysis at 1 h, 12.5 ug/ml [11]: 0%
inhibition [12]: Active
MIC [4]: 0.049 µg/mL
inhibition [14]: inactive
viability at 24 h, 25 ug/ml [15]: 106%
Activity [16]: 2 log10CFU/ml
Activity [17]: Active
Activity [18]: Active

O=C(Nc1ccccc1)c1ccc2[nH]c3c4[n+](ccc3c2c1)-c1ccccc1C4=O.[Br-]
MIC [1]: 12.5 µg/mL
MIC [2]: 6.25 µg/mL
MIC [3]: > 200 µg/mL
MIC [4]: 6.25 µg/mL

CC(C)c1ccc(NC(=O)c2ccc3[nH]c4c5[n+](ccc4c3c2)-c2ccccc2C5=O)cc1.[Br-]
MIC [1]: 0.195 µg/mL
MIC [2]: 0.049 µg/mL
MIC [3]: > 200 µg/mL
MIC [4]: 0.049 µg/mL

CCCCc1ccc(NC(=O)c2ccc3[nH]c4c5[n+](ccc4c3c2)-c2ccccc2C5=O)cc1.[Br-]
MIC [1]: 3.12 µg/mL
MIC [2]: 0.78 µg/mL
MIC [3]: > 200 µg/mL
MIC [4]: 0.049 µg/mL

CCCCCCCCc1ccc(NC(=O)c2ccc3[nH]c4c5[n+](ccc4c3c2)-c2ccccc2C5=O)cc1.[Br-]
MIC [1]: 25 µg/mL
MIC [2]: 25 µg/mL
MIC [3]: > 200 µg/mL
MIC [4]: 25 µg/mL

O=C(NC1CCCCC1)c1ccc2[nH]c3c4[n+](ccc3c2c1)-c1ccccc1C4=O.[Br-]
MIC [1]: 0.78 µg/mL
MIC [2]: 0.78 µg/mL
MIC [3]: > 200 µg/mL
MIC [4]: 0.78 µg/mL
